Data reported in patent US20110045101A1, “FUNGICIDAL SUBSTITUTED AZOLES” (E.I. Du Pont De Nemours and Company, priority 2009, published 2011).
Marks after values point to notes of the source that are not given here.

Tests used:
Format in all cases: in vivo
Conditions in all cases: 100 = 100% disease control
[1] = tested on: Puccinia recondita f. sp. tritici; assay: Test I: wheat leaf rust on wheat seedlings, sprayed the day before inoculation, visual disease rating
How it was run: (§1)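 Ratings reflect a 200 ppm spray (≈500 g/ha) unless marked as 40 ppm. Plants were sprayed to run-off. The spray suspension was acetone/purified water 50/50 containing 250 ppm Trem 014, after first dissolving compound in acetone at 3% of final volume.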

[2] = tested on: Septoria tritici; assay: Test G: wheat leaf blotch on wheat seedlings, sprayed the day before inoculation, visual disease rating
How it was run: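 Compounds dissolved in acetone (3% of final volume), then suspended in 50/50 acetone/water with 250 ppm Trem® 014 and sprayed to run-off on seedlings at 200 ppm (≈500 g/ha) or 40 ppm where marked. Inoculation with spores followed next day; visual rating after 48 h saturated at 24° C plus 19 days at 20° C.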

[3] = tested on: Puccinia recondita f. sp. tritici; assay: Test H: wheat leaf rust, test suspension sprayed after inoculation of wheat seedlings, visual disease rating
How it was run: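 Wheat seedlings inoculated with P. recondita spores, held 24 h saturated at 20 °C, then 2 days in growth chamber at 20 °C; compound suspension (acetone/water with Trem 014) sprayed to run-off afterwards. Rated visually; 200 ppm (≈500 g/ha) unless marked *, which denotes 40 ppm.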

[4] = tested on: Alternaria solani; assay: Test D: tomato early blight, sprayed the day before inoculation, visual disease rating
How it was run: as §1

[5] = tested on: Septoria nodorum; assay: Test F: wheat glume blotch on wheat seedlings, sprayed the day before inoculation, visual disease rating
How it was run: as §1

[6] = tested on: Erysiphe graminis f. sp. tritici; assay: Test J: wheat powdery mildew on wheat seedlings, sprayed the day before inoculation, visual disease rating
How it was run: as §1

[7] = tested on: Botrytis cinerea; assay: Test C: tomato Botrytis on tomato seedlings, sprayed the day before inoculation, visual disease rating
How it was run: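 Disease scored by eye on tomato seedlings inoculated with Botrytis cinerea a day after treatment. Treatment was a run-off spray at 200 ppm (equivalent to 500 g/ha), or 40 ppm where marked, in acetone/water carrying 250 ppm Trem 014.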

[8] = 200 ppm, 0 = no control relative to controls

SMILES | Test I disease control rating [1, 8] [%] | Test G disease control rating [2, 8] [%] | Test H disease control rating [3, 8] [%] | Test D disease control rating [4, 8] [%] | Test F disease control rating [5, 8] [%] | Test J disease control rating [6, 8] [%] | Test C disease control rating [7, 8] [%] | Test I disease control rating ([1]; 40 ppm (marked *)) | Test G disease control rating ([2]; 40 ppm (marked *)) | Test H disease control rating ([3]; 40 ppm (marked *)) | Test D disease control rating ([4]; 40 ppm (marked *)) | Test F disease control rating ([5]; 40 ppm (marked *)) | Test J disease control rating ([6]; 40 ppm (marked *)) | Test C disease control rating ([7]; 40 ppm (marked *))
COc1cc(F)c(-c2c(Cl)nc(Cl)n2-c2ccc(OC)nc2)c(F)c1 [compound 516] | 100 | 100 | 100 | 100 | 100 | 100 | 97 |  |  |  |  |  |  | 
COc1ccc(F)c(-c2c(Br)nc(Cl)n2-c2ccc(C)cc2)c1F [compound 517] | 99 | 98 | 0 | 100 | 96 | 100 | 100 |  |  |  |  |  |  | 
COc1ccc(Cl)c(-c2c(Cl)nc(Cl)n2-c2ccc(Cl)cc2)c1F [compound 518] | 98 | 98 | 0 | 99 | 99 | 100 | 100 |  |  |  |  |  |  | 
COc1ccc(F)c(-c2c(Cl)nc(C)n2-c2ccc(Cl)cc2)c1Cl [compound 519] | 100 | 97 | 0 | 100 | 100 | 100 | 100 |  |  |  |  |  |  | 
COc1ccc(F)c(-c2c(Cl)ncn2-c2ccc(C)c(F)c2)c1F [compound 520] | 99 | 97 | 0 | 100 | 0 | 100 | 100 |  |  |  |  |  |  | 
COc1cc(F)c(-c2c(C)nc(C)n2-c2ccc(C)cc2)c(F)c1 [compound 521] |  |  |  |  |  |  |  | 98* % | 98* % | 0* % | 99* % | 0* % | 90* % | 99* %
COc1cc(F)c(-c2c(C)nc(C)n2-c2ccc(F)cc2)c(F)c1 [compound 522] |  |  |  |  |  |  |  | 99* % | 98* % | 0* % | 100* % | 0* % | 96* % | 100* %
COc1cc(F)c(-c2c(Br)nc(Br)n2-c2ccc(F)cc2)c(F)c1 [compound 523] |  |  |  |  |  |  |  | 99* % | 98* % | 0* % | 100* % | 0* % | 97* % | 100* %
COc1cc(F)c(-c2c(Br)nc(Br)n2-c2ccc(C)cc2)c(F)c1 [compound 524] |  |  |  |  |  | 97 |  | 99* % | 98* % | 85* % | 100* % | 60* % |  | 99* %
COc1cc(F)c(-n2c(Br)nc(C)c2-c2ccc(C)cc2)c(F)c1 [compound 525] |  |  |  |  |  |  |  | 100* % | 98* % | 68* % | 100* % | 80* % | 98* % | 100* %
COc1ccc(F)c(-c2c(C)nc(Cl)n2-c2ccc(Cl)cc2)c1F [compound 526] | 100 | 99 | 0 | 100 | 100 | 100 | 100 |  |  |  |  |  |  | 
COc1ccc(F)c(-c2c(Cl)ncn2-c2ccc(C#N)cc2)c1F [compound 527] | 91 | 95 | 37 | 99 | 0 | 88 | 100 |  |  |  |  |  |  | 
COc1ccc(F)c(-c2c(Cl)ncn2-c2ccc(Br)cc2)c1F [compound 528] | 96 | 99 | 15 | 100 | 99 | 100 | 100 |  |  |  |  |  |  | 
Cc1nc(Cl)c(-c2c(F)cccc2F)n1-c1ccc(SCCl)cc1 [compound 529] | 48 | 82 | 9 | 0 | 0 | 0 | 0 |  |  |  |  |  |  | 
Cc1ncc(Cc2c(F)cc(F)cc2F)n1-c1ccc(Cl)cc1 [compound 530] | 88 | 58 | 0 | 0 | 0 | 71 | 0 |  |  |  |  |  |  | 
Cc1nc(Cl)c(Cc2c(F)cc(F)cc2F)n1-c1ccc(Cl)cc1 [compound 531] | 99 | 99 | 41 | 0 | 0 | 95 | 100 |  |  |  |  |  |  | 
Cc1nc(Br)c(Cc2c(F)cc(F)cc2F)n1-c1ccc(Cl)cc1 [compound 532] | 99 | 99 | 0 | 0 | 0 | 91 | 97 |  |  |  |  |  |  | 
COc1cc(OC)cc(-n2c(Cc3c(F)cc(F)cc3F)cnc2C)c1 [compound 533] | 92 | 49 | 15 | 0 | 0 | 82 | 0 |  |  |  |  |  |  | 
COc1cc(OC)cc(-n2c(C)nc(Cl)c2Cc2c(F)cc(F)cc2F)c1 [compound 534] | 0 | 2 | 0 | 0 | 0 | 0 | 38 |  |  |  |  |  |  | 
COc1cc(OC)cc(-n2c(C)nc(Br)c2Cc2c(F)cc(F)cc2F)c1 [compound 535] | 0 | 2 | 0 | 0 | 0 | 0 | 0 |  |  |  |  |  |  | 
Cc1ncc(Cc2c(F)cc(F)cc2F)n1-c1c(Cl)cccc1Cl [compound 536] | 98 | 90 | 37 | 68 | 0 | 98 | 89 |  |  |  |  |  |  | 
Cc1nc(Cl)c(Cc2c(F)cc(F)cc2F)n1-c1c(Cl)cccc1Cl [compound 537] | 100 | 97 | 9 | 76 | 60 | 99 | 99 |  |  |  |  |  |  | 
Cc1nc(Br)c(Cc2c(F)cc(F)cc2F)n1-c1c(Cl)cccc1Cl [compound 538] | 100 | 99 | 27 | 0 | 0 | 100 | 99 |  |  |  |  |  |  | 
Cc1ncc(Cc2c(F)cc(F)cc2F)n1-c1cc(Cl)cc(Cl)c1 [compound 539] | 93 | 7 | 0 | 0 | 0 | 95 | 36 |  |  |  |  |  |  | 
Cc1nc(Cl)c(Cc2c(F)cc(F)cc2F)n1-c1cc(Cl)cc(Cl)c1 [compound 540] | 0 | 3 | 0 | 0 | 0 | 21 | 15 |  |  |  |  |  |  | 
